Laboratory results as given in BindingDB's records for doi:10.1016/j.chembiol.2017.01.006 (Sanford Burnham Prebys Medical Discovery Institute, 2017).
Where a SMILES comes first, the peptide text is derived from it. [ ]: non-standard residue; d: D form. Trp(5-OH) = N[C@@H](Cc1c[nH]c2ccc(O)cc12)C(=O)O; Phe(4-Cl) = N[C@@H](Cc1ccc(Cl)cc1)C(=O)O; 4Pal = N[C@@H](Cc1ccncc1)C(=O)O; Ava = NCCCCC(=O)O; GABA = NCCCC(=O)O

Legend:
[1] = target: T1, Ephrin type-A receptor 4 [29-209] (Homo sapiens, UniProt P54764); experiment: Fluorescence Polarization Assay; details: pH 7.2; 25 °C
T1 construct: 29-209
Protocol: For competitive binding assays, 1 mL of […] EphA4-LBD was pre-incubated with the tested compounds at various concentrations in 98 mL of PBS (pH 7.2) in 96-well black plates at roomtemperature for 10 min, after which 1 mL of 500 mMFITC-labeled EphA4 peptide was added to produce a final volume of […].

[2] = target: T1, Ephrin type-A receptor 4 [29-209]; experiment: Isothermal Titration Calorimetry (ITC); details: pH 6.5; 27 °C
Protocol: (§1) The purified EphA proteins (EphA4-LBD, EphA3-LBD, and EphA2-LBD) were dissolved in 50 mM potassium phosphate buffer (pH 6.5) containing 100 mM NaCl. Compound binding was detected at 27 °C by comparing either the 2D-[15N,1H]-HSQC or 2D-[13C,1H]-HSQC spectra of 50 mMEphA4-LBD in absence and presence of compounds at 50 mM. ITC were measured with Model ITC200 from Microcal/GE Life Sciences.

[3] = target: T2, Ephrin type-A receptor 3 [29-207] (Homo sapiens, UniProt P29320); experiment: Isothermal Titration Calorimetry (ITC); details: pH 6.5; 27 °C
T2 construct: 29-207
T2 sequence (P29320 whole entry): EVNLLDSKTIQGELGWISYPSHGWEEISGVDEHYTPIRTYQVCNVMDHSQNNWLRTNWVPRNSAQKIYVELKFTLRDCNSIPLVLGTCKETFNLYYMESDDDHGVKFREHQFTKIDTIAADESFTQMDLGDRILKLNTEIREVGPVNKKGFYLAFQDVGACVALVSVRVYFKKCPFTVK
Protocol: as §1

T1 sequence (P54764 29-209): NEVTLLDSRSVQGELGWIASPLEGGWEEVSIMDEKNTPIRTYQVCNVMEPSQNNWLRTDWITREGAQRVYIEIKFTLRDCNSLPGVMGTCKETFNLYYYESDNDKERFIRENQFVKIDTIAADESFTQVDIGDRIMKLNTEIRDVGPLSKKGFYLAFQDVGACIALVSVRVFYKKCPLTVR

Row | Ki [1] [nM] | Kd [2] [nM] | Kd [3] [nM] | Compound
1 | 14000 | – | – | NCCC(=O)N[C@@H](Cc1c[nH]c2ccc(O)cc12)C(=O)N[C@@H](Cc1ccc(Cl)cc1)C(=O)N[C@@H](Cc1ccncc1)C(=O)N[C@H](Cc1ccncc1)C(N)=O [120G1]
2 | 960 | – | – | NCCCC(=O)N[C@@H](Cc1c[nH]c2ccc(O)cc12)C(=O)N[C@@H](Cc1ccc(Cl)cc1)C(=O)N[C@@H](Cc1ccncc1)C(=O)N[C@H](Cc1c[nH]c2ccccc12)C(N)=O [120H10] (H-[GABA][Trp(5-OH)][Phe(4-Cl)][4Pal][dW]-NH2)
3 | 3140 | – | – | NCCCC(=O)N[C@@H](Cc1c[nH]c2ccc(O)cc12)C(=O)N[C@@H](Cc1ccc(Cl)cc1)C(=O)N[C@@H](Cc1ccncc1)C(=O)NCCc1c[nH]c2ccc(Cl)cc12 [123C6]
4 | 2140 | 1200 | – | NCCC(=O)N[C@@H](Cc1c[nH]c2ccc(O)cc12)C(=O)N[C@@H](Cc1ccc(Cl)cc1)C(=O)N[C@@H](Cc1ccncc1)C(=O)N[C@H](Cc1c[nH]c2ccccc12)C(N)=O [EphA4-LBC inhibitor, Compound 22]
5 | 2220 | – | – | NCCCC(=O)N[C@@H](Cc1c[nH]c2ccc(O)cc12)C(=O)N[C@@H](Cc1ccc(Cl)cc1)C(=O)N[C@@H](Cc1ccncc1)C(=O)NCCc1c[nH]c2ccc(F)cc12 [123C3]
6 | 2570 | 2200 | – | NCCCC(=O)N[C@@H](Cc1c[nH]c2ccc(O)cc12)C(=O)N[C@@H](Cc1ccc(Cl)cc1)C(=O)N[C@@H](Cc1ccncc1)C(=O)NCCc1c[nH]c2ccc(O)cc12 [123C5]
7 | – | – | 4550 | COc1ccc2[nH]cc(CCNC(=O)[C@H](Cc3ccncc3)NC(=O)[C@H](Cc3ccc(Cl)cc3)NC(=O)[C@H](Cc3c[nH]c4ccc(O)cc34)NC(=O)CCCN)c2c1 [123C4]
8 | 3040 | – | – | NCCCCC(=O)N[C@@H](Cc1c[nH]c2ccc(O)cc12)C(=O)N[C@@H](Cc1ccc(Cl)cc1)C(=O)N[C@@H](Cc1ccncc1)C(=O)N[C@H](Cc1c[nH]c2ccccc12)C(N)=O [123B1] (H-[Ava][Trp(5-OH)][Phe(4-Cl)][4Pal][dW]-NH2)
9 | 7670 | – | – | NCCCC(=O)N[C@@H](Cc1c[nH]c2ccc(O)cc12)C(=O)N[C@@H](Cc1ccc(Cl)cc1)C(=O)N[C@@H](Cc1ccncc1)C(=O)NCCc1cccc2ccccc12 [123C12]
10 | 1590 | 540 | – | COc1ccc2c(CCNC(=O)[C@H](Cc3ccncc3)NC(=O)[C@H](Cc3ccc(Cl)cc3)NC(=O)[C@H](Cc3c[nH]c4ccc(O)cc34)NC(=O)CCCN)c[nH]c2c1 [123C7]
11 | > 100000 | – | – | CC(C)(N)C(C)(C)C(=O)N[C@@H](Cc1c[nH]c2ccc(O)cc12)C(=O)N[C@@H](Cc1ccc(Cl)cc1)C(=O)N[C@@H](Cc1ccncc1)C(=O)N[C@H](Cc1ccncc1)C(N)=O [120G2]
12 | 1590 | 1100 | – | NCCCC(=O)N[C@@H](Cc1c[nH]c2ccc(O)cc12)C(=O)N[C@@H](Cc1ccc(Cl)cc1)C(=O)N[C@@H](Cc1ccncc1)C(=O)NCCc1c[nH]c2ccccc12 [123C2]
